# Data taken from US6943924B2, “Apparatus and method for digital holographic imaging” (Ecole Polytechnique Federale de Lausanne (EPFL), priority 2001, dated 2005).
# System: cultured mouse cortical neurons
# Test: Digital holographic imaging (DHI) of glutamate-mediated morphological changes (phase/OPL signal) in neurons
# Format: cell-based
# Excerpt: FIG. 3 presents an example of application of the present invention to image living cells in culture enclosed in a perfusion chamber 30 filled with a physiological solution 37. […] A CCD camera 35 records the hologram. The hologram is produced by the interference with a reference wave 36. A numerical procedure is then applied to reconstruct the hologram. The obtained phase-contrast image can be presented in 3D perspective, as presented for example in FIG. 4d.
# From the quantitative phase-contrast image, quantitative data about the cell morphology can be obtained. The refractive index, at the wavelength of 633 nm, of the perfused solution nm=1.3336±0.0002, was measured with an Abbe refractometer. By assuming, in first approximation, a constant and homogeneous cellular refractive index ns=1.365, one can estimate that an phase of 10 degree corresponds to a cellular thickness d=0.6 μm. Using this relation between phase and thickness, phase measurements extracted from specific pixels of the quantitative phase-contrast image presented FIG. 3c, yields a thickness of 1-3 μm for the neuronal processes and of approximately 8 μm for the cell body. Even with the assumption of a homogeneous distribution of intracellular refractive index (which can be discussed given a certain degree of heterogeneity of its constituents), these estimations of cell morphology give realistic values of typical cell dimensions as described in the literature for the mouse cortical neurons presented here. Using the same assumption for refractive index of the cell, and based on a phase measurement accuracy of 0.7 degree, that is dictated by experimental opto-mechanical noise, we obtain an axial (or vertical) resolution of 40 nanometers.
# As an example of application of the present invention, the present invention has been applied to study the effects of an excitatory neurotransmitter (glutamate) on the morphology of cultured mouse cortical neurons. The influence of glutamate on neuron morphology has been already described as resulting from excitotoxicity, for high concentrations (20-500 μM) and long exposures of several minutes. […] It has also been established that this effect occurs in response to the activation of N-methyl-D-aspartate (NMDA) receptors. FIG. 4a presents the temporal evolution of the phase signal measured, in real-time by DHI, in the domain delimited by a black rectangle in FIG. 4b, which presents a typical example of a quantitative phase contrast image of a living mouse cortical neuron immersed in a physiological solution. […] These pulses of pharmacological agents are indicated by black triangles in FIG. 4a. […] The concentrations of GLUT, are respectively 15 μM, 10 μM, 15 μM and 20 μM. At instants indicated by black triangles 45 and 46, 400 μM of kynurenate (KYN), a broad spectrum ionotropic glutamate receptor antagonist, has been added to GLUT. […] These OPL increases could be reproduced several times over periods of more than three hours. […] A concentration-response curve (FIG. 4c) has been established on the basis of 5 different experiments. As response amplitudes vary from cell to cell, results were normalized with respect to the maximal response which occurred at a concentration of ˜15 μM. […] Without glycine cells started to respond at glutamate concentrations higher than 15 μM and for only ˜25% of cells (vs. ˜80% in the presence of glycine). As glycine is an NMDA receptor co-agonist, this behavior further emphasizes the role these receptors in the glutamate-evoked responses. The maximum amplitude of a typical phase increase is ˜10 degree representing ˜5% of the initial cellular phase. If we assume once again a constant cellular refractive index (ns=1.365), this corresponds to an increase in the vertical (z) axis of ˜0.6 μm.
smiles,measurement,setting,value
N[C@@H](CCC(=O)O)C(=O)O [glutamate],maximum amplitude of a typical phase increase,,~10 degree
same,maximum phase increase as share of the initial cellular phase,,~5%
same,EC50,"20 seconds pulses, glycine (3 μM) in perfusion solutions, 5 different experiments, normalized to maximal response, read-out: EC50 of glutamate-evoked phase response (Hill equation fit of concentration-response curve)",~7.5 µM
same,phase signal on application alone,"GLUT 15, 10, 15 and 20 μM pulses of 20 seconds",Marked phase increases
same,increase in the vertical (z) axis,assuming constant cellular refractive index ns=1.365,~0.6 μm
same,Hill coefficient,"concentration-response curve, glycine (3 μM) present",3.75±0.4
same,concentration at which the maximal response occurred,glycine (3 μM) present,~15 µM
same,cells responding,in the presence of glycine,~80%
same,cells responding,without glycine,~25%
same,glutamate concentration at which cells started to respond,without glycine,higher than 15 μM
"O=C(O)c1cc(=O)c2ccccc2[nH]1 [KYN, kynurenate]",effect on glutamate-evoked phase signal,400 μM added to GLUT,No increase of the phase signal occurs
C[C@]12N[C@H](Cc3ccccc31)c1ccccc12 [MK-801],effect on glutamate-evoked phase signal,5 μM added to GLUT,inhibited
